From ChEMBL document CHEMBL1201862, “PubChem BioAssay data set” (2004)
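Assay format: 96-well plates, 48-hour exposure. GI50 = concentration required for 50% inhibition of growth.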 Activity calls are given as the source filed them. Cut-off read from the data, not from the text of the source: active = GI50 up to about 1.1 µM and inactive = higher.

Key:
Assay in all cases: growth of human tumour cells (NCI), 48 h
[1] = tested on: Malme-3M
[2] = tested on: NCI-H23
[3] = tested on: K562
[4] = tested on: T47D
[5] = tested on: SR
[6] = tested on: SK-OV-3
[7] = tested on: LOX IMVI
[8] = tested on: OVCAR-4
[9] = tested on: SK-MEL-28
[10] = tested on: EKVX
[11] = tested on: MDA-MB-435
[12] = tested on: UACC-62
[13] = tested on: ACHN
[14] = tested on: HOP-62
[15] = tested on: SF-539
[16] = tested on: HCC 2998
[17] = tested on: U-251
[18] = tested on: 786-0
[19] = tested on: OVCAR-8
[20] = tested on: NCI/ADR-RES

Measured: GI50

O=P1(NCCCl)OCCCN1CCCl (stereo not given) [IFOSFAMIDE]
inactive: [1] 330 µM | [2] 417 µM | [3] 373 µM | [4] > 500 µM | [5] > 500 µM | [6] 379 µM | [7] 311 µM | [8] 415 µM | [9] 385 µM | [10] 352 µM | [11] > 500 µM | [12] 363 µM | [13] > 479 µM | [14] 341 µM | [15] 355 µM | [16] 346 µM | [17] 310 µM | [18] > 428 µM | [19] 388 µM | [20] 410 µM
